In patent US10335399B2, “Chromane, isochromane and dihydroisobenzofuran derivatives as mGluR2—negative allosteric modulators, compositions, and their use” (Merck Sharp & Dohme Corp., priority 2016, dated 2019):
pIC50: −log10 of the molar value.

Each compound was assayed against recombinant human mGluR2 (Homo sapiens (Human), UniProt Q14416) (assay: FLIPR Ca2+ mobilization assay: inhibition of glutamate-dependent mGluR2 activity). Conditions: CHO dhfr- cells stably expressing recombinant human mGluR2 and Gα16, Fluo-4 AM, FLIPR384; inhibition of response to 2,500 nM glutamate.
Sequence of recombinant human mGluR2 (Q14416 19-872): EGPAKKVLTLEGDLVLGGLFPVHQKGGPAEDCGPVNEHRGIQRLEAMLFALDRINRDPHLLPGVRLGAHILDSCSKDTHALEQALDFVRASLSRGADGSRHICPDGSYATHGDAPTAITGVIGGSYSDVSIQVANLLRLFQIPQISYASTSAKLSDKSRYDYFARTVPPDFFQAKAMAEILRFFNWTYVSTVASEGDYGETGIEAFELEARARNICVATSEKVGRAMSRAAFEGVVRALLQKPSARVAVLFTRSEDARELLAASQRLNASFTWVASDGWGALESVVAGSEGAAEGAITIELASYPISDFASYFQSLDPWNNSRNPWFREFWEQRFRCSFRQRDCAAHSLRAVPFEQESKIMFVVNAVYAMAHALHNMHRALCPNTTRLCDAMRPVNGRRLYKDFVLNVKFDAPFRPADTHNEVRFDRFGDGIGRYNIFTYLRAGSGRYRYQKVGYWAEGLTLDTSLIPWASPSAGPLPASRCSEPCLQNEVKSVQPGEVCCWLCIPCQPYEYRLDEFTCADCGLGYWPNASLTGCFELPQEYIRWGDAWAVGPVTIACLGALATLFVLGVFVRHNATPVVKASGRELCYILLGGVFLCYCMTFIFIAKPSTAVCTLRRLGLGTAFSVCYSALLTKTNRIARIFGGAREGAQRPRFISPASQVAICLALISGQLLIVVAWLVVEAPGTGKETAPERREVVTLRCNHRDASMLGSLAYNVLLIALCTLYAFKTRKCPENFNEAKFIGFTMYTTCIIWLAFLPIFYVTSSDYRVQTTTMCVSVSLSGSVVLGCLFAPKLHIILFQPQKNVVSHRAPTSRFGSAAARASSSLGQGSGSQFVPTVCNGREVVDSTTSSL
Assay type: cell-based
Method: Inhibition constants (IC50s; the concentration of compound required to provide 50% of maximal activity) are determined as follows. The compounds of the invention were tested in a fluorescence laser imaging plate reader based assay. This assay is a common functional assay to monitor Ca^2+ mobilization in whole cells expressing recombinant receptor coupled with a promiscuous G-protein. CHO (Chinese hamster ovary) dhfr− cells stably expressing recombinant human mGluR2 and Gα16 loaded with Fluo-4 AM (Invitrogen, Carlsbad Calif., USA) were treated with various concentrations of each of the tested compounds of the invention and the Ca^2+ response was monitored on a FLIPR384 instrument (Molecular Devices, Sunnydale Calif., USA). […] The maximum calcium response at each concentration of compound for agonist or antagonist were plotted as dose responses and the curves were fitted with a four parameter logistic equation giving IC50 and Hill coefficient using the iterative non-linear curve fitting software ADA (Merck & Co., Inc.). Data in the following table lists the activity of each compound to inhibit glutamate-dependent mGluR2 activity in this cellular assay.

Point of comparison: NC(=O)c1cc(-c2ccc(F)cc2F)c2c(n1)O[C@@H](CNCC(F)(F)F)CC2 (single isomer, unassigned) [Example 4-2B], pIC50 7.55. Against it:
- NC(=O)c1cc(-c2cnn(C(F)F)c2)c2c(n1)OC(COC(F)F)CC2 (single isomer, unassigned) [Example 3-4B, (R)- or (S)-2-((difluoro-methoxy)methyl)-5-(1-(difluoromethyl)-1H-pyrazol-4-yl)-3,4-dihydro-2H-pyrano[2,3-b]pyridine-7-carboxamide] — 1.72 log units lower, 5.83
- NC(=O)c1cc(-c2ccc(F)cc2F)c2c(n1)O[C@H](COC(F)F)CC2 [Example 3-1B, (S)-2-((difluoromethoxy)methyl)-5-(2,4-difluorophenyl)-3,4-dihydro-2H-pyrano[2,3-b]pyridine-7-carboxamide] — within 0.2 log units, 7.72
- NC(=O)c1cc(-c2ccc(F)cc2F)c2c(n1)O[C@@H](COC(F)F)CC2 [Example 3-1A, (R)-2-((difluoromethoxy)methyl)-5-(2,4-difluorophenyl)-3,4-dihydro-2H-pyrano[2,3-b]pyridine-7-carboxamide] — 0.60 log units higher, 8.15
- CC1(C)CCc2c(-c3ccc(F)cc3F)cc(C(N)=O)nc2O1 [Example 2-5, 5-(2,4-difluorophenyl)-2,2-dimethyl-3,4-dihydro-2H-pyrano[2,3-b]pyridine-7-carboxamide] — 0.67 log units higher, 8.22
- C[C@H](OC(F)F)[C@H]1CCc2c(-c3ccc(F)cc3F)cc(C(N)=O)nc2O1 [Example 2-9C, (R)-2-((S)-1-(difluoromethoxy)ethyl)-5-(2,4-difluorophenyl)-3,4-dihydro-2H-pyrano[2,3-b]pyridine-7-carboxamide] — 0.41 log units higher, 7.96
- C[C@@H]1CCc2c(-c3ccc(F)cc3F)cc(C(N)=O)nc2O1 (single isomer, unassigned) [Example 2-6A] — 0.45 log units higher, 8.00
- NC(=O)c1cc(-c2ccc(F)cc2F)c2c(n1)COCC2 [Example 1-1, 4-(2,4-difluorophenyl)-5,8-dihydro-6H-pyrano[3,4-b]pyridine-2-carboxamide] — 0.99 log units lower, 6.56
- C[C@@H]1Cc2c(-c3ccc(F)cc3F)cc(C(N)=O)nc2O[C@H]1COC(F)F [Example 3-9C, (2R,3R)-2-((difluoromethoxy)methyl)-5-(2,4-difluoropheny)-3-methyl-3,4-dihydro-2H-pyrano[2,3-b]pyridine-7-carboxamide] — 0.27 log units higher, 7.82
- C[C@@H]1Cc2c(-c3ccc(F)cc3F)cc(C(N)=O)nc2O[C@@H]1COC(F)F (single isomer, unassigned) [Example 3-9A] — 0.60 log units higher, 8.15
- COC[C@H]1CCc2c(-c3ccc(F)cc3F)cc(C(N)=O)nc2O1 (single isomer, unassigned) [Example 3-5B] — within 0.2 log units, 7.57
- NC(=O)c1cc(-c2ccc(F)cc2F)c2c(n1)O[C@H](CO)CC2 [Example 2-1A, (S)-5-(2,4-difluorophenyl)-2-(hydroxmethyl)-3,4-dihydro-2H-pyrano[2,3-b]pyridine-7-carboxamide] — within 0.2 log units, 7.42
- C[C@@]1(COC(F)F)CCc2c(-c3ccc(F)cc3F)cc(C(N)=O)nc2O1 (single isomer, unassigned) [Example 2-8A] — 0.55 log units higher, 8.10
- C[C@@H](OC(F)F)[C@@H]1CCc2c(-c3ccc(F)cc3F)cc(C(N)=O)nc2O1 [Example 2-9B, (S)-2-((R)-1-(difluoromethoxy)ethyl)-5-(2,4-difluorophenyl)-3,4-dihydro-2H-pyrano[2,3-b]pyridine-7-carboxamide] — 0.61 log units lower, 6.94
- NC(=O)c1cc(-c2ccc(F)cc2F)c2c(n1)O[C@H](C(F)F)CC2 [Example 3-7B, (S)-2-(difluoromethyl)-5-(2,4-difluorophenyl)-3,4-dihydro-2H-pyrano[2,3-b]pyridine-7-carboxamide] — 0.50 log units lower, 7.05
- NC(=O)c1cc(-c2ccc(F)cc2F)c2c(n1)O[C@H](C1CC1)CC2 [Example 2-3B, (S)-2-cyclopropyl-5-(2,4-difluorophenyl)-3,4-dihydro-2H-pyrano[2,3-b]pyridine-7-carboxamide] — within 0.2 log units, 7.49
- C[C@H]1CCc2c(-c3ccc(F)cc3F)cc(C(N)=O)nc2O1 (single isomer, unassigned) [Example 2-6B] — within 0.2 log units, 7.59
- C[C@@H]1Cc2c(-c3ccc(F)cc3F)cc(C(N)=O)nc2O[C@@H]1CO [Example 2-2A, (2S,3R)-5-(2,4-difluorophenyl)-2-(hydroxymethyl)-3-methyl-3,4-dihydro-2H-pyrano[2,3-b]pyridine-7-carboxamide] — 0.84 log units lower, 6.71
- NC(=O)c1cc(-c2cnn(C(F)F)c2)c2c(n1)C1CCC(C2)O1 (single isomer, unassigned) [Example 1-5B, (6S,9R)- or (6R,9S)-4-(1-(difluoromethyl)-1H-pyrazol-4-yl)-6,7,8,9-tetrahydro-5H-6,9-epoxycyclo-hepta[b]pyridine-2-carboxamide] — 1.06 log units lower, 6.49
- NC(=O)c1cc(-c2ccc(Cl)cc2F)c2c(n1)[C@@H]1CC[C@H](C2)O1 (single isomer, unassigned) [Example 1-3B, (6R,9S)- or (6S,9R)-4-(4-chloro-2-fluorophenyl)-6,7,8,9-tetrahydro-5H-6,9-epoxycyclo-hepta[b]pyridine-2-carboxamide] — 0.37 log units higher, 7.92
- Cn1cc(-c2cc(C(N)=O)nc3c2CC2CCC3O2)cn1 (single isomer, unassigned) [Example 1-4B, (6S,9R)- or (6R,9S)-4-(1-methyl-1H-pyrazol-4-yl)-6,7,8,9-tetrahydro-5H-6,9-epoxycyclo-hepta[b]pyridine-2-carboxamide] — 1.80 log units lower, 5.75
- COC[C@@H]1CCc2c(-c3ccc(F)cc3F)cc(C(N)=O)nc2O1 (single isomer, unassigned) [Example 3-5A] — within 0.2 log units, 7.59
- NC(=O)c1cc(-c2ccc(F)cc2)c2c(n1)OC(COC(F)F)CC2 (single isomer, unassigned) [Example 3-2A, (S)- or (R)-2-((difluoro-methoxy)methyl)-5-(4-fluorophenyl)-3,4-dihydro-2H-pyrano[2,3-b]pyridine-7-carboxamide] — within 0.2 log units, 7.74
- Cc1ncc(-c2cc(C(N)=O)nc3c2CCC(COC(F)F)O3)s1 (single isomer, unassigned) [Example 3-3A, (S)- or (R)-2-((difluoro-methoxy)methyl)-5-(2-methylthiazol-5-yl)-3,4-dihydro-2H-pyrano[2,3-b]pyridine-7-carboxamide] — 1.28 log units lower, 6.27
- NC(=O)c1cc(-c2cnn(C(F)F)c2)c2c(n1)OC(COC(F)F)CC2 (single isomer, unassigned) [Example 3-4A, (S)- or (R)-2-((difluoro-methoxy)methyl)-5-(1-(difluoromethyl)-1H-pyrazol-4-yl)-3,4-dihydro-2H-pyrano[2,3-b]pyridine-7-carboxamide] — 0.99 log units lower, 6.56
- C[C@@H](OC(F)F)[C@H]1CCc2c(-c3ccc(F)cc3F)cc(C(N)=O)nc2O1 [Example 2-9D, (R)-2-((R)-1-(difluoromethoxy)ethyl)-5-(2,4-difluorophenyl)-3,4-dihydro-2H-pyrano[2,3-b]pyridine-7-carboxamide] — 0.31 log units lower, 7.24
- NC(=O)c1cc(-c2ccc(F)cc2F)c2c(n1)[C@@H]1CC[C@H](C2)O1 (single isomer, unassigned) [Example 1-2B] — within 0.2 log units, 7.68
- CC1(C)COc2nc(C(N)=O)cc(-c3ccc(F)cc3F)c2C1 [Example 2-7, 5-(2,4-difluorophenyl)-3,3-dimethyl-3,4-dihydro-2H-pyrano[2,3-b]pyridine-7-carboxamide] — within 0.2 log units, 7.60
- CC(C)[C@H]1CCc2c(-c3ccc(F)cc3F)cc(C(N)=O)nc2O1 (single isomer, unassigned) [Example 2-4B] — 0.39 log units lower, 7.16
- C[C@@H]1Cc2c(-c3ccc(F)cc3F)cc(C(N)=O)nc2O[C@H]1CO [Example 2-2C, (2R,3R)-5-(2,4-difluorophenyl)-2-(hydroxymethyl)-3-methyl-3,4-dihydro-2H-pyrano[2,3-b]pyridine-7-carboxamide] — within 0.2 log units, 7.46
- CN(C[C@@H]1CCc2c(-c3ccc(F)cc3F)cc(C(N)=O)nc2O1)CC(F)(F)F (single isomer, unassigned) [Example 4-1A] — within 0.2 log units, 7.60
- NC(=O)c1cc(-c2cnn(C(F)F)c2)c2c(n1)C1CCC(C2)O1 (single isomer, unassigned) [Example 1-5A, (6R,9S)- or (6S,9R)-4-(1-(difluoromethyl)-1H-pyrazol-4-yl)-6,7,8,9-tetrahydro-5H-6,9-epoxycyclo-hepta[b]pyridine-2-carboxamide] — lower, < 5.52
- NC(=O)c1cc(-c2ccc(F)cc2F)c2c(n1)O[C@@H](CF)CC2 (single isomer, unassigned) [Example 3-6B] — 0.45 log units higher, 8.00
- NC(=O)c1cc(-c2ccc(F)cc2F)c2c(n1)[C@H]1CC[C@@H]2O1 (single isomer, unassigned) [Example 5-1A] — 0.75 log units lower, 6.80
- C[C@H]1Cc2c(-c3ccc(F)cc3F)cc(C(N)=O)nc2O[C@@H]1CO [Example 2-2B, (2S,3S)-5-(2,4-difluorophenyl)-2-(hydroxymethyl)-3-methyl-3,4-dihydro-2H-pyrano[2,3-b]pyridine-7-carboxamide] — 0.27 log units higher, 7.82
- C[C@H]1Cc2c(-c3ccc(F)cc3F)cc(C(N)=O)nc2O[C@H]1CO [Example 2-2D, (2R,3S)-5-(2,4-difluorophenyl)-2-(hydroxmethyl)-3-methyl-3,4-dihydro-2H-pyrano[2,3-b]pyridine-7-carboxamide] — 0.46 log units lower, 7.09
- NC(=O)c1cc(-c2ccc(Cl)cc2F)c2c(n1)[C@H]1CC[C@@H](C2)O1 (single isomer, unassigned) [Example 1-3A, (6S,9R)- or (6R,9S)-4-(4-chloro-2-fluorophenyl)-6,7,8,9-tetrahydro-5H-6,9-epoxycyclo-hepta[b]pyridine-2-carboxamide] — 0.36 log units lower, 7.19
